In assay [1] the test system is PC3 (Prostate Cancer) cells. The experiment in a line: Cellular growth assay (MTT), PC3. The assay is classed as cell-based. Conditions: Homo sapiens, PC-3, 40 hr incubation, read-out: PC3 (inhibition of 50% of cellular growth). On the procedure: (§1) K562 (Chronic Myeloid Leukemia), PC3 (Prostate Cancer), and DU145 (Prostate Cancer) were obtained from the American Type Culture Collection (ATCC). K562 was grown in RPMI, with 10% FBS with Glutamx added. DU145 cells were cultured in DMED, with 10% FBS and Glutamx and MEM non-essential amino acids added. PC3 cells were grown in F12K medium, with 10% FBS and Glutamx and MEM non-essential amino acids added. All cells were grown at 37° C. in 5% CO2.

Assay [2] relates to DU145 (Prostate Cancer) cells. The experiment in a line: Cellular growth assay (MTT), DU145. Type of assay: cell-based. The settings on record: Homo sapiens, DU-145, 40 hr incubation, read-out: DU145 (inhibition of 50% of cellular growth). The method, then: as §1
In assay [3] the target is TelJak3 (Homo sapiens, UniProt P52333). The experiment in a line: Cellular growth assay (MTT), BaF3 TEL/JAK3 cells. Conditions: 40 hr incubation, read-out: TelJak3 (inhibition of 50% of cellular growth). Type of assay: cell-based.
Chain of TelJak3 (P52333 with tags, fused parts or gaps): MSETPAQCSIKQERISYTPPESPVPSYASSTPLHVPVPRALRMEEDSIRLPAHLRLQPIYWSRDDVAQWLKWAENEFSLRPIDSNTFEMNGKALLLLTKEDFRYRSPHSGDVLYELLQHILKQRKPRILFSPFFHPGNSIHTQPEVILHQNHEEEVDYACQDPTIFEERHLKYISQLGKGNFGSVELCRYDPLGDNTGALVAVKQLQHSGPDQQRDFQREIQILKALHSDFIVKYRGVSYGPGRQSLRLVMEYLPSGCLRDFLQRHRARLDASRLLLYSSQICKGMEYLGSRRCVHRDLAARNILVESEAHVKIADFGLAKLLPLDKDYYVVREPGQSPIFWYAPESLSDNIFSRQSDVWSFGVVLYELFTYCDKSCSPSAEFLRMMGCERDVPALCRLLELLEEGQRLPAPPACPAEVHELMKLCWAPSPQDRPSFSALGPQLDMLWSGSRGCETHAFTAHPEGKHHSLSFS
Assay [4] addresses TelJak2 (Homo sapiens, UniProt O60674). Nature of the assay: Cellular growth assay (MTT), BaF3 TEL/JAK2 cells. The settings on record: 40 hr incubation, read-out: TelJak2 (inhibition of 50% of cellular growth). The assay is classed as cell-based.
The subject of assay [5] is K562 (Chronic Myeloid Leukemia) cells. The experiment in a line: Cellular growth assay (MTT), K562. Type of assay: cell-based. Conditions: Homo sapiens, 40 hr incubation, read-out: K562 (inhibition of 50% of cellular growth). On the procedure: as §1
In assay [6] the test system is Tubulin. Nature of the assay: Tubulin assay (turbidometric microtubule assembly). Type of assay: biochemical. The settings on record: at 50 μM, absorbance at 340 nm, 37° C. The method, then:
Turbidometric assays of microtubule assembly were performed by incubating microtubule protein in cuvettes at 37° C. in a thermostatically controlled spectrophotometer measuring the change in absorbance at 340 nm over time. The microtubule protein was incubated with the each test compound at 0° C. and polymerisation was initiated by addition of 1 mM GTP, prior to heating to 37° C.

Chain of TelJak2 (O60674 with tags, fused parts or gaps): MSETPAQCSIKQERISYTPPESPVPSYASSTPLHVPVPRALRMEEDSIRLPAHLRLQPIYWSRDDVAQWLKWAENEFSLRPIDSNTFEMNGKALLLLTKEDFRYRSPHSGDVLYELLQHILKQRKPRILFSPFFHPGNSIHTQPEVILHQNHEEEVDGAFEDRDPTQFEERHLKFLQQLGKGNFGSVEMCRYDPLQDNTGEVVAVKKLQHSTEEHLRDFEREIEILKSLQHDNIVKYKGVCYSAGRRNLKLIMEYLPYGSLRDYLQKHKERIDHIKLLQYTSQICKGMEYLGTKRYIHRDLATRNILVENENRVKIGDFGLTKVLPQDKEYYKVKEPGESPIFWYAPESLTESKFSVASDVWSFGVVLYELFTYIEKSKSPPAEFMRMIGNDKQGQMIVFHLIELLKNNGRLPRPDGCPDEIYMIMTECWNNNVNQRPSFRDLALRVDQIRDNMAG

`CCCC(Nc1cncc(-c2ccc(O)c(OC)c2)n1)c1cc(C)ccc1C` (stereo not drawn): the IC50 in assay [1], in assay [2], in assay [3], in assay [4] and in assay [5] was at most 20 µM in each case. The “Tubulin (inhibition of tubulin polymerisation)” value in assay [6] was “+ (inhibited tubulin polymerisation by greater than 50% at 50 μM)”.

As to `CCCC(Nc1cncc(-c2ccc(O)c(OC)c2)n1)c1ccc(OC)nc1` (stereo not drawn), the IC50 was above 20 µM in assay [1]; at most 20 µM in assay [2]; at most 20 µM in assay [3]; at most 20 µM in assay [4]; at most 20 µM in assay [5]. For the same compound, in assay [6], the “Tubulin (inhibition of tubulin polymerisation)” value was “+ (inhibited tubulin polymerisation by greater than 50% at 50 μM)”.

`CCCC(Nc1cncc(-c2ccc(NC(C)=O)c(OC)c2)n1)c1ccc(F)cc1` (stereo not drawn): the IC50 in assay [1], in assay [2], in assay [3], in assay [4] and in assay [5] was at most 20 µM each time. Also, the “Tubulin (inhibition of tubulin polymerisation)” value in assay [6] is listed as “+ (inhibited tubulin polymerisation by greater than 50% at 50 μM)”.

As to `CCCC(Nc1cncc(-c2cc(C)c(O)c(C)c2)n1)c1ccc(F)cc1` (stereo not drawn), the IC50 in assay [1], in assay [2], in assay [3], in assay [4] and in assay [5] was at most 20 µM throughout. The “Tubulin (inhibition of tubulin polymerisation)” value in assay [6] is “+ (inhibited tubulin polymerisation by greater than 50% at 50 μM)”.

On to `CCCC(Nc1cncc(-c2cc(C)c(OCCN(CC)CC)c(C)c2)n1)c1ccc(F)cc1` (stereo not drawn), for which the IC50 in assay [1], in assay [2], in assay [3], in assay [4] and in assay [5] was at most 20 µM each time. The “Tubulin (inhibition of tubulin polymerisation)” value in assay [6] is “+ (inhibited tubulin polymerisation by greater than 50% at 50 μM)”.

The values above are taken from patent publication US8084456B2, “Pyrazine-based tubulin inhibitors” (YM Biosciences Australia Pty Ltd, priority 2002, dated 2011).
